Results taken from publication PMC7721589, “Synthesis and structure-activity relationships for tetrahydroisoquinoline-based inhibitors of Mycobacterium tuberculosis” (Bioorganic & Medicinal Chemistry, 2020).
Values after ≈ are worked out from the molar mass of the structure shown.

How the values were obtained:
[1] = Microsomal clearance in human liver microsomes; further: unit not given here
[2] = target: human mitochondrial ATP synthase (Homo sapiens, UniProt P00846+P05496); assay: Inhibition of human mitochondrial ATP synthase; assay type: biochemical
human mitochondrial ATP synthase, sequence (P05496 62-136): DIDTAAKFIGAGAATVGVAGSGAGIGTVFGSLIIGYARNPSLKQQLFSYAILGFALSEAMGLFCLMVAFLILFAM
human mitochondrial ATP synthase, sequence (P00846 whole entry): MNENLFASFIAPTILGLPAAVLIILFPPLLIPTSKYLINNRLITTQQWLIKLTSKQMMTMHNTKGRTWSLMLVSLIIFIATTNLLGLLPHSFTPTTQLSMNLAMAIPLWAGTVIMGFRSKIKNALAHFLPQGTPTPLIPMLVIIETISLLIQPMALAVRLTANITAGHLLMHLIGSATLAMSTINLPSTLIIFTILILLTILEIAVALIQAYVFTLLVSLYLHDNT
human mitochondrial ATP synthase, sequence (P06576 48-529, further chain): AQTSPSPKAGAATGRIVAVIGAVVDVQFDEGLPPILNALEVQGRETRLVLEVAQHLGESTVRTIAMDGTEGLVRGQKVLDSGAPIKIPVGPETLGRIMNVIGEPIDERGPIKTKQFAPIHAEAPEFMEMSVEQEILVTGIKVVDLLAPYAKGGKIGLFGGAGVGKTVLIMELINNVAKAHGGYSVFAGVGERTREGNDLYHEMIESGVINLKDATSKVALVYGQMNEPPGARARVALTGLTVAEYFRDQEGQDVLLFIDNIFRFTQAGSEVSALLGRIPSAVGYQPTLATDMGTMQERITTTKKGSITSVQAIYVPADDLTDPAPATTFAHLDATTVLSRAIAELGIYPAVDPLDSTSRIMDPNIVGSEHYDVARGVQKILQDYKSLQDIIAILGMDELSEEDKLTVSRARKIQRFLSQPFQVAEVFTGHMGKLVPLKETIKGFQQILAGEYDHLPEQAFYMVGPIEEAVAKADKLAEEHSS
human mitochondrial ATP synthase, sequence (P25705 44-553, further chain): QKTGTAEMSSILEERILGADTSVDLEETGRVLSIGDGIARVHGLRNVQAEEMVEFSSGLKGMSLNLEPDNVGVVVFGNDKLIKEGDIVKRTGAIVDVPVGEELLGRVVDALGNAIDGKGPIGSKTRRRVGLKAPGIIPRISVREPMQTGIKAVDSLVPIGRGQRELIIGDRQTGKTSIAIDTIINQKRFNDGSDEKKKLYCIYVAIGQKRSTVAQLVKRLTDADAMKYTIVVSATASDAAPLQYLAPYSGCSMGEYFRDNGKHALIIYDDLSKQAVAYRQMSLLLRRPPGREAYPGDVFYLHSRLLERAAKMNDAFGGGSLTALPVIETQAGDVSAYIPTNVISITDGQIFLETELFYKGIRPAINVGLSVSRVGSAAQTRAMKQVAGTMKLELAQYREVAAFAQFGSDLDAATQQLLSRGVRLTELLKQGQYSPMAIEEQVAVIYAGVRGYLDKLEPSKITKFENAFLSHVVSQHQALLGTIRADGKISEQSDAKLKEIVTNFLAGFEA
human mitochondrial ATP synthase, sequence (P30049 23-168, further chain): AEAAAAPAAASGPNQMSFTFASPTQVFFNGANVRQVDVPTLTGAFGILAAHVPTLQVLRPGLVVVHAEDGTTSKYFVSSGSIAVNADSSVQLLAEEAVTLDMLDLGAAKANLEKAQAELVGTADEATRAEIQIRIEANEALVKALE
human mitochondrial ATP synthase, sequence (P36542 26-298, further chain): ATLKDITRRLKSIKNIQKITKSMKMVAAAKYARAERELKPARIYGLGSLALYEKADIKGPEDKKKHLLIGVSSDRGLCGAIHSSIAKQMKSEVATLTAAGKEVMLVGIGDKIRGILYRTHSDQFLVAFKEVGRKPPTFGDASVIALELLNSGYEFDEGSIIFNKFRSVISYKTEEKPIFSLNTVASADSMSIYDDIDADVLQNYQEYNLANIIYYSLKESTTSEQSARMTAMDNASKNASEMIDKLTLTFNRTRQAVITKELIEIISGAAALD

[3] = test system: Vero green monkey-derived epithelial kidney cells; assay: Mammalian cytotoxicity in Vero cells; assay type: cell-based; settings: Table 1
[4] = test system: M.tb strain H37Rv; assay: MIC against M.tb H37Rv under aerobic (replicating; MABA) conditions; assay type: cell-based, Mycobacterium tuberculosis; settings: MIC90, Table 1
[5] = test system: M.tb strain H37Rv; assay: MIC against M.tb H37Rv under non-replicating (LORA) conditions; settings: MIC90, Table 1
[6] = Stability in CDCl3 solution; assay type: physicochemical; settings: over 1–2 days
Description: Note: The X = OMe compounds 8 and 9 were unstable in CDCl3 solution over 1–2 days.

[7] = Microsomal clearance in mouse liver microsomes; further: unit not given here
[8] = target: M. smegmatis ATP synthase (Mycolicibacterium smegmatis, UniProt A0R205+A0R206); assay: Inhibition of mycobacterial ATP synthase; assay type: biochemical; settings: M. smegmatis ATP synthase

Compound | HLM Clint [1] | Mamm. ATPsynth IC50 [2] | IC50 VERO [3] | MIC MABA [4] | MIC LORA [5] | stability in CDCl3 solution [6] | MLM Clint [7] | M. smeg ATPsynth IC50 [8]
COc1ccc(N2CCN(C)CC2)c2c1CCN(C(=O)Nc1ccc(-c3ccc(Cl)cc3C)cn1)C2 [Compound 8, N-(5-(4-Chloro-2-methylphenyl)pyridin-2-yl)-5-methoxy-8-(4-methylpiperazin-1-yl)-3,4-dihydroisoquinoline-2(1H)-carboxamide] | 17 | 16 µg/mL | 12 µg/mL (≈ 23.7 µM) | 1.9 µg/mL (≈ 3.75 µM) | 3.6 µg/mL (≈ 7.11 µM) | unstable | 42 | 4.2 µg/mL
N-(5-(4-chloro-2-methylphenyl)pyridin-2-yl)-5-methyl-8-(4-methylpiperazin-1-yl)-3,4-dihydroisoquinoline-2(1H)-carboxamide [Compound 6] | 22 | 23 µg/mL | 22 µg/mL | 1.9 µg/mL | 2.4 µg/mL |  | 35 | 5.5 µg/mL
